Results as given in EP4796125A1, “TREATMENT OF PATIENT WITH NEGATIVE P53 GENE MUTATION, POSITIVE KRAS GENE MUTATION AND POSITIVE BRCA MUTATION” (Ascentawits Pharmaceuticals, Ltd., priority 2023, dated 2025).
Peptide text beside a SMILES is read from it. * marks the point of attachment. Cbz = O=C(OCc1ccccc1)*

Columns and labels:
NCI-H460 P53KO #1 cells = assay: In vitro proliferation under normoxia conditions (CTG, 72 hours), Example 29; format: cell-based, human; details: Table 25
Description: (§1) • 1) NCI-H460 and NCI-H460 P53KO # 1 cell suspensions were added to 96-well plate (100 µL per well), with a cell density of 2000 cells/well. • 2) The cells were cultured overnight in a 37°C, 5% CO2 incubator. • 3) Compound Treatment
(§2) Monotherapy: 24 hours after cell plating, each well was supplemented with 99.5 µL of growth medium. Then, 0.5 µL of test compounds at different concentrations was added. The plate was gently shaken to ensure even mixing, and then placed in a 37°C, 5% CO2 incubator.
(§3) Combination therapy: 24 hours after cell plating, each well was supplemented with 99 µL of growth medium. Then, 0.5 µL of the combination compound was added. The plate was gently shaken to ensure even mixing, and then placed in an incubator for 2 hours. Then, 0.5µL of test compounds at different concentrations was added. The plate was gently shaken to ensure even mixing, and then placed in a 37°C, 5% CO2 incubator. • 4) The cell plate was placed in the incubator for 72 hours. • 5) The cell plate to be tested was placed at room temperature and equilibrated for 30 minutes, and 100 µL of medium was discarded from each well. • 6) 25 µL of CTG reagent was added to each well, placed at a fast shaker to shake for 2 minutes, and placed at room temperature for 30 minutes (protected from light). • 7) The chemiluminescence signal value was read using a multifunctional microplate reader with a reading time of 1000 ms. • 8) IC50 (half maximal inhibitory concentration) values were calculated using GraphPad Prism 5 software.

NCI-H460 cells = assay: as above; format: cell-based
Description: as §1, §2, §3

[1] = test system: RAD51 protein in H460 cells; assay: WB detection of RAD51 protein (level, degradation with MG-132, half-life with Cycloheximide); format: cell-based; details: 0.1 nM AST-3424, 5 µM Nutlin-3, then 5 µM MG-132 for 6 hours (Figure 21)
Description: In the first experiment, the second experiment and the third experiment about the effect of the combination of AST-3424 and Nutlin-3 on Ser15-p53, Ser20-p53, Total p53, MDM2, and p21 proteins in H460 cells in Example 21, the applicant also performed WB detection of RAD51 protein.
• 1) H460 cell suspension was added to a 24-well plate, with a cell density of 100000 cells/well and 995 µL of medium per well. • 2) The cells were cultured overnight in a 37°C, 5% CO2 incubator. • 3) Compound Treatment
Monotherapy: 24 hours after cell plating, 5 µL of test compounds at different concentrations was added: 1% DMSO, 0.1 nM AST-3424, and 5 µM Nutlin-3. The plate was gently shaken to ensure even mixing, and then placed in a 37°C, 5% CO2 incubator. After culturing for another 24 hours, the cells were collected.
Combination therapy: 24 hours after cell plating, • Adding 0.1 nM AST-3424 for pre-treatment for 2 hours, and then adding 5 µM Nutlin-3 for co-treatment for 22 hours; • Adding 1% DMSO and 5 µM MG-132 for co-treatment for 24 hours; • Adding 0.1 nM AST-3424 and 5 µM MG-132 for co-treatment for 24 hours; • Adding 5 µM Nutlin-3 and 5 µM MG-132 for co-treatment for 24 hours; • Adding 0.1 nM AST-3424 for pre-treatment for 2 hours, and then adding 5 µM Nutlin-3 for treatment for 16 hours, and then adding 5 µM MG-132 for co-treatment for 6 hours. […]

HPAF-II cells = assay: In vitro proliferation inhibition experiment (CTG, 72 hours), Example 20; format: cell-based, human; details: Homo sapiens, Table 15, HPAF-II, read-out: Inhibition rate/%
Description: (§4) • 1) H460 and HPAF-II cell suspensions were added to a 96-well plate (100 µL per well), with cell densities of 2000 cells/well and 20000 cells/well, respectively. • 2) The cells were cultured overnight in a 37°C, 5% CO2 incubator. • 3) Compound Treatment
(§5) Combination therapy: 24 hours after cell plating, each well was supplemented with 99 µL of growth medium. Then, 0.5 µL of Nutlin-3 or RITA was added to each well. The plate was gently shaken to ensure even mixing, and then placed in an incubator for 2 hours. Then, 0.5 µL of test compounds at different concentrations was added. The plate was gently shaken to ensure even mixing, and then placed in a 37°C, 5% CO2 incubator.
(§6) Monotherapy: 24 hours after cell plating, each well was supplemented with 99.5 µL of growth medium. Then, 0.5 µL of test compounds at different concentrations was added. The plate was gently shaken to ensure even mixing, and then placed in a 37°C, 5% CO2 incubator. • 4) The cell plate was placed in the incubator for 72 hours. • 5) The cell plate to be tested was placed at room temperature and equilibrated for 30 minutes, and 100 µL of medium was discarded from each well. • 6) 25 µL of CTG reagent was added to each well, placed on a fast shaker to shake for 2 minutes, and placed at room temperature for 30 minutes (protected from light). • 7) The chemiluminescence signal value was read using a multifunctional microplate reader with a reading time of 1000 ms, and the corresponding inhibition rate data were calculated.

H460 cells = assay: as above; format: cell-based; details: Homo sapiens, NCI-H460, read-out: Inhibition rate result / %
Description: as §4, §5, §6

[2] = test system: NRF2 and AKR1C3 in HPAF II cells; details: 0.875, 1.75, 3.5, 7 µM SFN, overnight, with increasing concentration
Description: A solution of SFN compound (Sulforaphane, NRF2 activator) was added to HPAF II cell suspension. The mixture was cultured overnight in a 37°C, 5% CO2 incubator. The cell protein lysate was collected for Western Blotting (WB) detection. The experiment consisted of five groups: 0.5% DMSO, 0.875 µM SFN, 1.75 µM SFN, 3.5 µM SFN, and 7 µM SFN. HPAF II cells were treated with different concentrations of the NRF2 activator SFN, and then subjected to Western Blotting to detect the expressions of NRF2 and AKR1C3.

[3] = test system: cell lines and mouse tumor models of BRCA pathogenic mutations; details: in vitro and in vivo pharmacodynamic experiments; data of WO2023174319A; cited from earlier work

## CN(C)C(=O)c1cccc(Oc2cc3c(cc2[N+](=O)[O-])OCCC3OP(=O)(N2CC2)N2CC2)c1 (stereo not shown) [Compound C]
NCI-H460 P53KO #1 cells; Homo sapiens, NCI-H460 P53KO # 1, normoxia, alone or + 3 µM AST-3021
  IC50: 36.1 nM
NCI-H460 P53KO #1 cells; IC50 in NCI-H460 P53KO # 1 / NCI-H460
  Ratio, knockout / wild-type: 17.60
NCI-H460 P53KO #1 cells; NCI-H460 P53KO # 1, IC50 ratio
  Ratio, Compound C/AST-3424: 6.62
NCI-H460 cells; Homo sapiens, Table 25, normoxia, alone or + 3 µM AST-3021
  IC50: 2.05 nM
NCI-H460 cells; Table 25, IC50 ratio
  Ratio, Compound C/AST-3424: 4.77

## CC(C)C[C@@H](C=O)NC(=O)[C@H](CC(C)C)NC(=O)[C@H](CC(C)C)NC(=O)OCc1ccccc1 [MG-132] (Cbz-Leu-Leu-Leu-aldehyde)
[1]
  RAD51 protein level after addition of MG-132: reverses the downregulation of RAD51 protein

## OCc1ccc(-c2ccc(-c3ccc(CO)s3)o2)s1 [RITA]
HPAF-II cells; group 1: AST 60 nM, RITA 2.5 µM, AST + RITA 60+ 2.5
  inhibition at 2.5 µM: 2.86%
HPAF-II cells; group 2: AST 60 nM, RITA 5 µM, AST + RITA 60+ 5
  inhibition at 5 µM: 5.56%
H460 cells; Table 13, H460, group 1: AST 0.5 nM, RITA 0.025 µM, AST + RITA 0.5+0.025
  inhibition at 0.025 µM: 22.3%
H460 cells; Table 13, H460, group 2: AST 0.5 nM, RITA 0.05 µM, AST + RITA 0.5+0.05
  inhibition at 0.05 µM: 22.4%

## C[S+]([O-])CCCCN=C=S (stereo not shown) [SFN, Sulforaphane]
[2]
  expression of AKR1C3: also increases simultaneously
  expression of NRF2: increases significantly

## Cn1c(COP(=O)(NCCBr)NCCBr)cnc1[N+](=O)[O-] [TH-302]
[3]
  sensitivity of cell lines and mouse tumor models of BRCA pathogenic mutations: more sensitive
